Activity calls are given as the source filed them. No cut-off for these calls is given here.
What was measured:
[1] = molecular target: T1, Probable flavin-dependent thymidylate synthase (Paramecium bursaria Chlorella virus 1, UniProt O41156); test: Inhibition of PBCV1 Thymidylate synthase X
T1 sequence (O41156 whole entry): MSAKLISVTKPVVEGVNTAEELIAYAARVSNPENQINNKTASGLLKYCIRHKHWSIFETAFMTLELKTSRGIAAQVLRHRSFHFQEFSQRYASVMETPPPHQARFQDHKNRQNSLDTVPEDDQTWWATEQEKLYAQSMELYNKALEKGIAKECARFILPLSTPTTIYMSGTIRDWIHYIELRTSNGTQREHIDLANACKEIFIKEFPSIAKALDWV

[2] = molecular target: T2, Probable flavin-dependent thymidylate synthase (Paramecium bursaria Chlorella virus 1) (UniProt O41156); test: Inhibition of PBCV1 Thymidylate synthase X in presence of triton X100 surfactant
T2 sequence (whole entry): T1 sequence (O41156 whole entry)

[3] = molecular target: T2, Probable flavin-dependent thymidylate synthase (Paramecium bursaria Chlorella virus 1); test: Inhibition of PBCV1 Thymidylate synthase X in presence of bovine serum albumin surfactant
[4] = molecular target: T2, Probable flavin-dependent thymidylate synthase (Paramecium bursaria Chlorella virus 1); test: Reversal of inhibition of PBCV1 Thy X at 20 uM in presence of dUMP

| Compound | Ki [1] [nM] | Activity [2] | Activity [3] | IC50 [1] [nM] | Activity [4] |
| --- | --- | --- | --- | --- | --- |
| CCOC(=O)[C@@H]1CSC(c2ccccc2)N1C(=O)c1cn(CCc2ccc(F)cc2)nn1 (stereo partly drawn) | 2000 | – | – | – | – |
| CCOC(=O)[C@@H]1CSC(c2ccccc2)N1C(=O)c1cn(CCc2ccsc2)nn1 (stereo partly drawn) | 1000 | – | – | – | – |
| CCCCCCC(=O)N(CC(=O)O)C[C@@H]1CSC(c2ccccc2)N1C(=O)c1ccccc1 (stereo partly drawn) | 130 | Active | Active | 130 | Active |

Continued by falling Ki [1], values first:

| Ki [1] [nM] | Activity [2] | Activity [3] | IC50 [1] [nM] | Activity [4] | Compound |
| --- | --- | --- | --- | --- | --- |
| 3500 | – | – | – | – | CCOC(=O)[C@@H]1CSC(c2ccccc2)N1C(=O)c1cn(CCCCCCCO)nn1 (stereo partly drawn) |
| 57 | Active | Active | 57 | inactive | CCOC(=O)[C@@H]1CSC(c2ccccc2)N1C(=O)c1cn(CCCNC(=O)C(F)(F)F)nn1 (stereo partly drawn) |

— ChEMBL document CHEMBL1145593, “Design, synthesis and evaluation of potent thymidylate synthase X inhibitors” (Bioorg Med Chem Lett, 2008)
